# Laboratory results as given in US20230097085A1, “[6R]-MTHF IN 5-FU BASED CHEMOTHERAPY OF RIGHT-SIDED COLORECTAL CANCER” (Isofol Medical AB, priority 2021, published 2023).
# System: solid colorectal cancer tumors (metastatic colorectal cancer)
# Experiment: Clinical study ISO-CC-005 (safety extension cohorts #18/#19 and Follow-up study): tumour response by CT/MRI per RECIST 1.1
# Assay type: in vivo, human
# Excerpt: As used herein, the term ORR shall refer to the Objective Response Rate, ie. the proportion of patients with reduction in tumor burden of a predefined amount. […] (Note: the appearance of one or more new lesions is also considered progression). […] 2019. The completion of the study was announced in January 2020. In total, 105 patients were included in the study. Applicant completed the dose definition part of ISO-CC-005 in March 2018, which evaluated the safety and efficacy of arfolitixorin in patients with mCRC. Shortly after, applicant started two additional treatment groups in 2018 to generate more safety and efficacy data, i.e. the safety extension Cohort #18 (Treatment Arm #4) and Cohort #19 (Treatment Arm #6). The aim was to evaluate as many patients as possible from the additional treatment groups after a treatment period of 16 weeks+. On 30 Sep. 2020, applicant announced response assessment data from the two safety extension cohorts (31 patients) treated for 16 weeks or longer (press release: 55% Overall Response Rate on the safety extension cohorts of the ISO-CC-005 Phase Ulla study BioSpace). […] Out of the 31 patients, 17 were treated with an ARFOX regimen. Clinical Study ISO-CC-005 was an exploratory, […] multiple-centre study to be carried out in Stadium IV CRC patients. […] In the Main Study, patients received study treatment with arfolitixorin during eight (8) weeks. Patients eligible for the Follow-up study could participate until reaching progress, but no longer than 18 months. Enrolled patients, stadium IV CRC patients, were aware of the relatively poor prognosis of their disease. Those patients who could continue benefitting from treatment with a […] effective therapy, were offered the possibility to continue study treatment by participating in the Follow-up Study. In the Follow-up Study patients continued to receive the same treatment as assigned during the Main Study period. However, the Investigator could complete the allocated treatment with other therapeutic agents of choice in alignment with standard of care in order to adapt treatment to the patient's specific needs and, in this way, provide optimal care. Response was measured in short- and long-term assessments. During the Main Study phase, only short-term assessments of tumour response were explored by means of objective response rate (ORR) and early tumour shrinkage (ETS). These assessments were to be used as indicators of prognostic factor in ascertaining earlier non responders and to explore the correlation to other factors such as folate levels, tumour biomarkers, or expression levels of certain key genes. […]
smiles,measurement,setting,value
"Nc1nc2c(c(=O)[nH]1)N1CN(c3ccc(C(=O)N[C@@H](CCC(=O)O)C(=O)O)cc3)C[C@H]1CN2 [arfolitixorin, [6R]-5,10-methylenetetrahydrofolate]",best overall response rate (ORR),"31 patients of the two safety extension cohorts treated 16 weeks or longer, 120 mg/m2 arfolitixorin + 5-FU with irinotecan or oxaliplatin (ARFIRI/ARFOX)",55%
same,progression of solid tumors between 8 and 16 weeks after initiating treatment,"[6R]-MTHF and 5-FU, treatment period of at least 8 weeks, Phase I/IIa study ISO-CC-005",No statistically significant progression
same,best ORR in patients diagnosed with RCRC,"right-sided CRC patients (13) of the 31-patient group, after 16 weeks and beyond, 120 mg/m2 arfolitixorin + 5-FU + irinotecan or oxaliplatin",46%
same,best ORRs (objective response rates) that can be achieved,"right-sided CRC patients incl. BRAF/KRAS mutation-positive, protocol over at least 16 weeks with multiple rapid boluses",> 50%
